Measured values as given in US20170318812A1, “Plant and Crop Growth Regulating/Biostimulant Formulations and Methods of Use” (Arysta Lifescience North America, LLC, priority 2014, published 2017).
“And” between values parts separate entries of the source, which are not always exact repeats. Identical values can stand only once.

Assays:
[1] = system: PHSVX Phaseolus vulgaris (Garden bean); assay: Ipfencarbazone biostimulant effect, early post emergence foliar application, greenhouse pots, plant height: dry bean; assay type: in vivo; conditions: PHSVX PEROLA
From the text: (§1) The original objective of this Example was to evaluate the herbicidal effect of ipfencarbazone when applied as a post emergent treatment to a range of selected crops and weeds. Unexpectedly, crop plant growth stimulation was observed. The actual species of weeds and crops are listed in the summary data tabulated below and in FIGS. 1-13. By convention each plant species has a Bayer code (5-letter name) with the scientific name for the plant referenced in FIGS. 1-13. In each Figure, each tray contains the same configuration of weeds and/or crops. In each Figure there is one replication of each treatment (six treatments in total). The top three photographs in each Figure show the Bayer Codes and bottom three photographs are aligned with the top three facilitating viewing of the same plant species. Throughout the Examples various abbreviations as conventional shorthand notation and will be appreciated by those skilled in the art. Some exemplary abbreviations include, “CV”=Co-efficient of Variation,” “LSD”=Least Significant Difference” (G/L (gram per L) AND GA/L (gram of active ingredient per L); “SC”=suspension concentrate formulation. The diluent in all treatments was water. By convention factors that are identical in all treatments (e.g. diluent and surfactant) are not listed in each treatment.
(§2) Methods: The indicated size pots (see Tables below) are filled with a specific soil, the soil properties being indicated below. The referenced crops and weeds are planted by hand in each pot. […] The experiments include six treatments each replicated three times on each crop/weed species. At a specific time after emergence each crop and weed species was treated with ipfencarbazone plus a non-ionic surfactant (NIS). In the present Example, the surfactant employed was ENERGIC™ (non-ionic surfactant). The application timing is indicated in each of the Tables (1 or 2 leaf stage) below. Ipfencarbazone plus surfactant was diluted in water and applied at a rate equivalent to about 250 L/ha. Ipfencarbazone was applied using a track sprayer. After treatment, the pots were randomized in a greenhouse. At each assessment (indicated by “days after treatment” or DAT) the height of each plant was measured. The letters next to each mean indicate the level of statistical significance.
(§3) Replications: 3, Untreated treatments: 1, Design: Randomized Complete Block (RCB), Treatment units: Treated ‘Plot’ experimental unit size, Dry Form. Unit: %, Treated ‘Plot’ experimental unit size Width: 1 meter, Treated ‘Plot’ experimental unit size Length: 1.4 meters, Application volume: 250 L/ha, Mix size: 0.15 liters, […]

[2] = system: SORVU Sorghum bicolor (Grain sorghum); assay: Ipfencarbazone biostimulant effect, early post emergence foliar application, greenhouse pots, plant height: sorghum; assay type: in vivo; conditions: for Plant HEIGHT, Mean / Plant HEIGHT, single plots: Grain sorghum DKB 590, 15 DA-A; for HEIGHT, percent of untreated check (APoC) / HEIGHT, treatment mean / HEIGHT, single plots (replicates): SORVU DKB 590
From the text: as §1, §2, §3

[3] = 62.5 g ai/ha, 28 DA-A, plots 102, 205, 302
[4] = 125 g ai/ha, 28 DA-A, plots 103, 206, 305
[5] = 62.5 g ai/ha + Energic NIS 0.2 % v/v
[6] = 125 g ai/ha + Energic NIS 0.2 % v/v
[7] = 250 g ai/ha + Energic NIS 0.2 % v/v
[8] = 500 g ai/ha + Energic NIS 0.2 % v/v

CC(C)N(C(=O)n1cnn(-c2ccc(Cl)cc2Cl)c1=O)c1ccc(F)cc1F [ARY-0572-001, ipfencarbazone]
HEIGHT, percent of untreated check (APoC) ([1]; 62.5 g ai/ha, 15 DA-A): (105.6%)
HEIGHT, treatment mean ([1]; 62.5 g ai/ha, 15 DA-A): 10.4 a cm and 10.4 cm
HEIGHT, single plots (replicates) ([1]; 62.5 g ai/ha, 15 DA-A, plots 102, 205, 302): 11.7 cm (2×) and 8.0 cm
HEIGHT, percent of untreated check (APoC) ([1]; 62.5 g ai/ha, 28 DA-A, AS square root transformation): (152.2%)
HEIGHT, treatment mean ([1]; 62.5 g ai/ha, 28 DA-A, AS square root transformation (t)): 19.8 a cm and 19.8t cm
HEIGHT, single plots (replicates) [1, 3]: 24.0 cm and 17.3 cm and 19.7 cm
HEIGHT, percent of untreated check (APoC) ([1]; 125 g ai/ha, 15 DA-A): (75.8%)
HEIGHT, treatment mean ([1]; 125 g ai/ha, 15 DA-A): 7.5 ab cm and 7.5 cm
HEIGHT, single plots (replicates) ([1]; 125 g ai/ha, 15 DA-A, plots 103, 206, 305): 0.0 cm and 10.7 cm and 11.8 cm
HEIGHT, percent of untreated check (APoC) ([1]; 125 g ai/ha, 28 DA-A, AS square root transformation): (91.8%)
HEIGHT, treatment mean ([1]; 125 g ai/ha, 28 DA-A, AS square root transformation (t)): 12.0 a cm and 12.0t cm
HEIGHT, single plots (replicates) [1, 4]: 4.3 cm and 16.0 cm and 20.3 cm
HEIGHT, percent of untreated check (APoC) ([1]; 250 g ai/ha, 15 DA-A): (5.6%)
HEIGHT, treatment mean ([1]; 250 g ai/ha, 15 DA-A): 0.6 c cm and 0.6 cm
HEIGHT, single plots (replicates) ([1]; 250 g ai/ha, 15 DA-A, plots 104, 201, 306): 0.0 cm (2×) and 1.7 cm
HEIGHT, percent of untreated check (APoC) ([1]; 250 g ai/ha, 28 DA-A, AS square root transformation): (2.5%)
HEIGHT, treatment mean ([1]; 250 g ai/ha, 28 DA-A, AS square root transformation (t)): 0.3 a cm and 0.3t cm
HEIGHT, single plots (replicates) ([1]; 250 g ai/ha, 28 DA-A, plots 104, 201, 306): 0.0 cm (2×) and 2.0 cm
HEIGHT, percent of untreated check (APoC) ([1]; 500 g ai/ha, 15 DA-A): (6.7%)
HEIGHT, treatment mean ([1]; 500 g ai/ha, 15 DA-A): 0.7 c cm and 0.7 cm
HEIGHT, single plots (replicates) ([1]; 500 g ai/ha, 15 DA-A, plots 105, 202, 301): 2.0 cm and 0.0 cm (2×)
HEIGHT, percent of untreated check (APoC) ([1]; 500 g ai/ha, 28 DA-A, AS square root transformation): (155.1%)
HEIGHT, treatment mean ([1]; 500 g ai/ha, 28 DA-A, AS square root transformation (t)): 20.2 a cm and 20.2t cm
HEIGHT, single plots (replicates) ([1]; 500 g ai/ha, 28 DA-A, plots 105, 202, 301): 73.0 cm and 0.0 cm and 25.0 cm
HEIGHT, percent of untreated check (APoC) ([1]; 1000 g ai/ha, 15 DA-A): (59.0%)
HEIGHT, treatment mean ([1]; 1000 g ai/ha, 15 DA-A): 5.8 b cm and 5.8 cm
HEIGHT, single plots (replicates) ([1]; 1000 g ai/ha, 15 DA-A, plots 106, 203, 304): 5.0 cm and 6.7 cm and 5.8 cm
HEIGHT, percent of untreated check (APoC) ([1]; 1000 g ai/ha, 28 DA-A, AS square root transformation): (51.7%)
HEIGHT, treatment mean ([1]; 1000 g ai/ha, 28 DA-A, AS square root transformation (t)): 6.7 a cm and 6.7t cm
HEIGHT, single plots (replicates) ([1]; 1000 g ai/ha, 28 DA-A, plots 106, 203, 304): 6.3 cm and 7.3 cm and 6.7 cm
Plant HEIGHT, Mean [2, 5]: 59.9 cm
Plant HEIGHT, single plots [2, 5]: 55.3 cm and 68.0 cm and 56.3 cm
Plant HEIGHT, Mean [2, 6]: 59.3 cm
Plant HEIGHT, single plots [2, 6]: 68.7 cm and 55.0 cm and 54.3 cm
Plant HEIGHT, Mean [2, 7]: 61.3 cm
Plant HEIGHT, single plots [2, 7]: 58.0 cm and 65.0 cm and 61.0 cm
Plant HEIGHT, Mean [2, 8]: 60.4 cm
Plant HEIGHT, single plots [2, 8]: 56.0 cm and 66.3 cm and 58.8 cm
Plant HEIGHT, Mean ([2]; 1000 g ai/ha + Energic NIS 0.2 % v/v): 22.7 cm
HEIGHT, percent of untreated check (APoC) ([2]; 62.5 g ai/ha, 15 DA-A): (246.1%)
HEIGHT, treatment mean ([2]; 62.5 g ai/ha, 15 DA-A): 59.9 a cm
HEIGHT, percent of untreated check (APoC) ([2]; 62.5 g ai/ha, 28 DA-A): (296.5%)
HEIGHT, treatment mean ([2]; 62.5 g ai/ha, 28 DA-A): 85.0 a cm and 85.0 cm
HEIGHT, single plots (replicates) [2, 3]: 73.0 cm and 110.7 cm and 71.3 cm
HEIGHT, percent of untreated check (APoC) ([2]; 125 g ai/ha, 15 DA-A): (243.8%)
HEIGHT, treatment mean ([2]; 125 g ai/ha, 15 DA-A): 59.3 a cm
HEIGHT, percent of untreated check (APoC) ([2]; 125 g ai/ha, 28 DA-A): (277.1%)
HEIGHT, treatment mean ([2]; 125 g ai/ha, 28 DA-A): 79.4 a cm and 79.4 cm
HEIGHT, single plots (replicates) [2, 4]: 102.7 cm and 71.3 cm and 64.3 cm
